Experimental data from patent publication US7109193B2, “Tricyclic diazepines tocolytic oxytocin receptor antagonists” (Wyeth, priority 2001, dated 2006).
pIC50: −log10 of the molar value.

How the values were obtained:
[1] = target: T1, human vasopressin V1a receptor subtype (Homo sapiens, UniProt P37288); assay: Vasopressin binding in Chinese Hamster Ovary cell membranes expressing human vasopressin V1a subtype receptors; conditions: CHO cell membranes, [3H]Manning ligand; for pIC50: values in parentheses; for inhibition at 0.1 µM: 100 nM, values without parentheses
T1 construct: host or cells: CHO cells (pZeoSV vector for the Thibonnier line)
T1 sequence (P37288 whole entry): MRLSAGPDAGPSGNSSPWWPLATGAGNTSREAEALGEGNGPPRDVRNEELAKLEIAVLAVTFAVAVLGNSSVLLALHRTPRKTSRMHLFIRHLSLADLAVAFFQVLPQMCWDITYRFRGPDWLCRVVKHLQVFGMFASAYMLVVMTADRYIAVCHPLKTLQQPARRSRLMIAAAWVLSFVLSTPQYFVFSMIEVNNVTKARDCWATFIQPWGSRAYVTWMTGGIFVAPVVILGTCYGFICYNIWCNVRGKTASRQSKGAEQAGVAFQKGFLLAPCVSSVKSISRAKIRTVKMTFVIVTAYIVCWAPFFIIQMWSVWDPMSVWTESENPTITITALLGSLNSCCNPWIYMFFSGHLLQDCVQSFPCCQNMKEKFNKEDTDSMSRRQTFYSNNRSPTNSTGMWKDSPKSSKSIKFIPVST
Outline: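 Membranes from CHO cells expressing human V1a receptor were incubated with [3H]Manning ligand (added as 20 μL of 8 nM) in pH 7.4 Tris buffer with MgCl2, BSA and protease inhibitors, 60 min at room temperature. Bound radioactivity was counted after filtration; values are percent inhibition at a stated concentration or IC50.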

pIC50 [1]	melting point [°C]	inhibition at 0.1 µM [1] [%]	SMILES
6.65	187 to 190		COc1cc(C(=O)N2Cc3ccc(C(=O)N(C)CCN(C)C)n3Cc3ccccc32)ccc1-c1ccccc1C(F)(F)F [Example 22, N-Methyl-[N-(2-dimethylamino)ethyl]-10-{[2-methoxy-2′-trifluoromethyl-[1,1′-biphenyl]-4-yl]carbonyl}-10,11-dihydro-5H-pyrrolo[2,1-c][1,4]benzodiazepine-3-carboxamide]
7.34	141 to 144		COc1cc(C(=O)N2Cc3cccn3Cc3ccccc32)ccc1-n1c(C)ccc1C [Example 27, [4-(2,5-Dimethyl-1-H-pyrrol-1-yl)-3-methoxy-phenyl][10,11-dihydro-5H-pyrrolo[2,1-c][1,4]benzodiazepin-10-yl]methanone]
7.65	115 to 117.5		O=C(c1ccc(-c2cccc3ccccc23)cc1Cl)N1Cc2cccn2Cc2ccccc21 [Example 24, [2-Chloro-4-(naphthalen-1-yl)phenyl][10,11-dihydro-5H-pyrrolo[2,1-c][1,4]benzodiazepin-10-yl]methanone]
6.14	125 to 128		COc1cc(C(=O)N2Cc3ccc(C(=O)N4CCC[C@H]4CN4CCCC4)n3Cc3ccccc32)ccc1-c1ccccc1C(F)(F)F [Example 20, {[10-(2-Methoxy)-2′-trifluoromethyl-[1,1′-biphenyl]-4-yl]carbonyl}-[(2S)-[(2-pyrrolidin-1-yl)methyl]pyrrolidin-1-yl]-10,11-dihydro-5H-pyrrolo[2,1-c][1,4]benzodiazepin-3-yl-methanone]
6.42	140 to 142		COc1cc(C(=O)N2Cc3ccc(C(=O)N(C)CCCN(C)C)n3Cc3ccccc32)ccc1-c1ccccc1C(F)(F)F [Example 21, N-Methyl-[N-(3-dimethylamino)propyl]-10-{[2-methoxy-2′-trifluoromethyl-[1,1′-biphenyl]-4-yl]carbonyl}-10,11-dihydro-5H-pyrrolo[2,1-c][1,4]benzodiazepin-3-carboxamide]
6.88	160 to 162		Cc1ccc(-c2ccc(C(=O)N3Cc4cccn4Cc4ccccc43)cc2)c2ccccc12 [Example 25, [4-(4-Methyl-naphthalen-1-yl)phenyl][10,11-dihydro-5H-pyrrolo[2,1-c][1,4]benzodiazepin-10-yl]methanone]
7.18	155 to 158		O=C(c1ccc(-c2cccc3ccccc23)nc1)N1Cc2cccn2Cc2ccccc21 [Example 28, [6-(Naphthalen-1-yl)-pyridin-3-yl]-[10,11-dihydro-5H-pyrrolo[2,1-c][1,4]benzodiazepin-10-yl]methanone]
	85 to 95	14	Cc1cc(C(=O)N2Cc3ccc(C(=O)N4CCN(CCCN(C)C)CC4)n3Cc3ccccc32)ccc1-c1ccccc1C(F)(F)F [Example 4, [4-(3-Dimethylaminopropyl)-piperazin-1-yl]-[10-(2-methyl-2′-trifluoromethyl-[1,1′-biphenyl]-4-yl)carbonyl]-[10,11-dihydro-5H-pyrrolo[2,1-c][1,4]benzodiazepin-3-yl]-methanone]
		90	Cc1ccccc1-c1ccc(C(=O)N2Cc3ccc(C(=O)N(C)CCN(C)C)n3Cc3ccccc32)cc1 [Example 91, N-[2-(Dimethylamino)ethyl]-N-methyl-10-[(2′-methyl[1,1′-biphenyl]-4-yl)carbonyl]-10,11-dihydro-5H-pyrrolo[2,1-c][1,4]benzodiazepine-3-carboxamide]
		16	COc1cc(C(=O)N2Cc3ccc(C(=O)NCCCN(C)C)n3Cc3ccccc32)ccc1-c1cccc2ccccc12 [Example 80, N-[3-(Dimethylamino)propyl]-10-[3-methoxy-4-(1-naphthyl)benzoyl]-10,11-dihydro-5H-pyrrolo[2,1-c][1,4]benzodiazepine-3-carboxamide]
6.52			COc1ccccc1-c1ccc(C(=O)N2Cc3ccc(C(=O)N4CC[C@@H](N(C)C)C4)n3Cc3ccccc32)cc1C [Example 272, [(3R)-3-(Dimethylamino)pyrrolidinyl]{10-[(2′-methoxy-2-methyl[1,1′-biphenyl]-4-yl)carbonyl]-10,11-dihydro-5H-pyrrolo[2,1-c][1,4]benzodiazepin-3-yl}methanone]
